Experimental data: patent publication US6358885B1, “Substituted phenylheterocyclic herbicides” (Mississippi State University, priority 1992, dated 2002)

Legend:
barley [1] = experiment: Test C preemergence/postemergence greenhouse plant response rating 0 to 100; format: in vivo, Hordeum vulgare; conditions: POSTEMERGENCE
Excerpt: (§1) The compounds evaluated in this test were formulated in a non-phytoxic solvent and applied to the soil surface before plant seedlings emerged (preemergence application), to water that covered the soil surface (flood application), and to plants that were in the one-to-four leaf stage (postemergence application). A sandy loam soil was used for the preemergence and postemergence tests, while a silt loam soil was used in the flood test. Water depth was approximately 2.5 cm for the flood test and was maintained at this level for the duration of the test. Plant species in the preemergence and postemergence tests consisted of barley (Hordeum vulgare), bedstraw (Galium aparine), blackgrass (Alopecurus myosuroides), chickweed (Stellaria media), corn (Zea mays), cotton (Gossypium hirsutum), crabgrass (Digitaria sanguinalis), downy brome (Bromus tectorum), giant foxtail (Setaria faberii), lambsquarters (Chenopodium album), morningglory (Ipomoea hederacea), pigweed ([…]), rape (Brassica napus), ryegrass (Lolium multiflorum), sorghum (Sorghum bicolor), soybean (Glycine max), speedwell (Veronica persica), sugar beet (Beta vulgaris), velvetleaf (Abutilon theophrasti), wheat (Triticum aestivum), wild buckwheat (Polygonum convolvulus), and wild oat (Avena fatua). All plant species were planted one day before application of the compound for the preemergence portion-of this test. Plantings of these species were adjusted to produce plants of appropriate size for the post-emergence portion of the test. […] All plant species were grown using normal greenhouse practices. Visual evaluations of injury expressed on treated plants, when compared to untreated controls, were recorded approximately fourteen to twenty one days after application of the test compound. […] A dash (-) response means no test result.

blackgrass = experiment: as above; format: in vivo, Alopecurus myosuroides; conditions: POSTEMERGENCE
Excerpt: as §1

giant foxtail [2] = experiment: Test B preemergence/postemergence greenhouse plant response rating 0 to 10; format: in vivo, Setaria faberii; conditions: 0 to 10 scale
Procedure, shortened: (§2)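 Both application timings were run together: seeds got compound preemergence, and established seedlings (two to eighteen cm) got it postemergence. Non-phytotoxic solvent carried the chemical. Ratings are visual, versus controls, at twelve to sixteen days.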

cheatgrass = experiment: as above; format: in vivo, Bromus secalinus; conditions: 0 to 10 scale
Procedure, shortened: as §2

soybean [3] = experiment: as above; format: in vivo, Glycine max; conditions: 0 to 10 scale
Procedure, shortened: as §2

giant foxtail [4] = experiment: Test C preemergence/postemergence greenhouse plant response rating 0 to 100; format: in vivo, Setaria faberii; conditions: POSTEMERGENCE
Excerpt: as §1

rape = experiment: as above; format: in vivo, Brassica napus; conditions: POSTEMERGENCE
Excerpt: as §1

sorghum = experiment: as above; format: in vivo, Sorghum bicolor; conditions: POSTEMERGENCE
Excerpt: as §1

lambsquarters = experiment: Test B preemergence/postemergence greenhouse plant response rating 0 to 10; format: in vivo, Chenopodium album; conditions: 0 to 10 scale
Procedure, shortened: as §2

cocklebur = experiment: as above; format: in vivo, Xanthium pensylvanicum; conditions: 0 to 10 scale
Procedure, shortened: as §2

soybean [5] = experiment: Test C preemergence/postemergence greenhouse plant response rating 0 to 100; format: in vivo, Glycine max; conditions: POSTEMERGENCE
Excerpt: as §1

chickweed = experiment: as above; format: in vivo, Stellaria media; conditions: POSTEMERGENCE
Excerpt: as §1

velvetleaf = experiment: Test B preemergence/postemergence greenhouse plant response rating 0 to 10; format: in vivo, Abutilon theophrasti; conditions: 0 to 10 scale
Procedure, shortened: as §2

bedstraw = experiment: as above; format: in vivo, Galium aparine; conditions: 0 to 10 scale
Procedure, shortened: as §2

morningglory [6] = experiment: Test C preemergence/postemergence greenhouse plant response rating 0 to 100; format: in vivo, Ipomoea hederacea; conditions: POSTEMERGENCE
Excerpt: as §1

barley [7] = experiment: Test B preemergence/postemergence greenhouse plant response rating 0 to 10; format: in vivo, Hordeum vulgare; conditions: 0 to 10 scale
Procedure, shortened: as §2

morningglory [8] = experiment: as above; format: in vivo, Ipomoea hederacea; conditions: 0 to 10 scale
Procedure, shortened: as §2

C#CCN1C(=O)COc2cc(F)c(-c3nn4c(c3Br)CCCC4)cc21 [Compound 56]
95: Plant response rating, Soybean (soybean [5]; 62 g/ha, 0 to 100 scale)
40: Plant response rating (0 to 100), Blackgrass (blackgrass; Rate 4 g/ha) | Plant response rating, Giant foxtail (giant foxtail [4]; 62 g/ha, 0 to 100 scale) | Plant response rating (0 to 100), Soybean (soybean [5]; Rate 1 g/ha)
90: Plant response rating (0 to 100), Soybean (soybean [5]; Rate 16 g/ha)
20: Plant response rating (0 to 100), Sorghum (sorghum; Rate 1 g/ha)
5: Plant response rating, Cheatgrass (cheatgrass; POSTEMERGENCE, Rate 10 g/ha) | Plant response rating, Cheatgrass (cheatgrass; PREEMERGENCE, Rate 10 g/ha) | Plant response rating, Cheatgrass (cheatgrass; PREEMERGENCE, Rate 50 g/ha)
9: Plant response rating, Soybean (soybean [3]; POSTEMERGENCE, Rate 10 g/ha) | Plant response rating, Velvetleaf (velvetleaf; POSTEMERGENCE, Rate 10 g/ha) | Plant response rating, Velvetleaf (velvetleaf; POSTEMERGENCE, Rate 50 g/ha) | Plant response rating, Bedstraw (bedstraw; PREEMERGENCE, Rate 50 g/ha) | Plant response rating, Morningglory (morningglory [8]; POSTEMERGENCE, Rate 50 g/ha)
4: Plant response rating, Giant foxtail (giant foxtail [2]; POSTEMERGENCE, Rate 10 g/ha) | Plant response rating, Bedstraw (bedstraw; PREEMERGENCE, Rate 10 g/ha)
100: Plant response rating, Rape (rape; 62 g/ha, 0 to 100 scale) | Plant response rating (0 to 100), Rape (rape; Rate 1 g/ha) | Plant response rating (0 to 100), Rape (rape; Rate 4 g/ha) | Plant response rating (0 to 100), Rape (rape; Rate 16 g/ha) | Plant response rating, Chickweed (chickweed; 62 g/ha, 0 to 100 scale) | Plant response rating (0 to 100), Chickweed (chickweed; Rate 16 g/ha) | Plant response rating, Morningglory (morningglory [6]; 62 g/ha, 0 to 100 scale) | Plant response rating (0 to 100), Morningglory (morningglory [6]; Rate 4 g/ha) | Plant response rating (0 to 100), Morningglory (morningglory [6]; Rate 16 g/ha)
65: Plant response rating (0 to 100), Blackgrass (blackgrass; Rate 16 g/ha) | Plant response rating (0 to 100), Chickweed (chickweed; Rate 1 g/ha)
60: Plant response rating, Sorghum (sorghum; 62 g/ha, 0 to 100 scale) | Plant response rating (0 to 100), Soybean (soybean [5]; Rate 4 g/ha)
30: Plant response rating (0 to 100), Barley Igri (barley [1]; Rate 1 g/ha) | Plant response rating (0 to 100), Barley Igri (barley [1]; Rate 4 g/ha) | Plant response rating (0 to 100), Blackgrass (blackgrass; Rate 1 g/ha) | Plant response rating (0 to 100), Giant foxtail (giant foxtail [4]; Rate 16 g/ha) | Plant response rating (0 to 100), Sorghum (sorghum; Rate 4 g/ha)
50: Plant response rating Barley Igri (barley [1]; 62 g/ha, 0 to 100 scale) | Plant response rating (0 to 100), Barley Igri (barley [1]; Rate 16 g/ha) | Plant response rating (0 to 100), Sorghum (sorghum; Rate 16 g/ha) | Plant response rating (0 to 100), Morningglory (morningglory [6]; Rate 1 g/ha)
80: Plant response rating, Blackgrass (blackgrass; 62 g/ha, 0 to 100 scale) | Plant response rating (0 to 100), Chickweed (chickweed; Rate 4 g/ha)
7: Plant response rating, Barley (barley [7]; POSTEMERGENCE, Rate 50 g/ha)
2: Plant response rating, Cocklebur (cocklebur; PREEMERGENCE, Rate 10 g/ha) | Plant response rating, Cocklebur (cocklebur; PREEMERGENCE, Rate 50 g/ha) | Plant response rating, Barley (barley [7]; PREEMERGENCE, Rate 50 g/ha)
6: Plant response rating, Giant foxtail (giant foxtail [2]; POSTEMERGENCE, Rate 50 g/ha) | Plant response rating, Cheatgrass (cheatgrass; POSTEMERGENCE, Rate 50 g/ha) | Plant response rating, Barley (barley [7]; POSTEMERGENCE, Rate 10 g/ha) | Plant response rating, Morningglory (morningglory [8]; PREEMERGENCE, Rate 50 g/ha)
0: Plant response rating, Giant foxtail (giant foxtail [2]; PREEMERGENCE, Rate 10 g/ha) | Plant response rating, Giant foxtail (giant foxtail [2]; PREEMERGENCE, Rate 50 g/ha) | Plant response rating, Soybean (soybean [3]; PREEMERGENCE, Rate 50 g/ha) | Plant response rating, Barley (barley [7]; PREEMERGENCE, Rate 10 g/ha)
8: Plant response rating, Soybean (soybean [3]; POSTEMERGENCE, Rate 50 g/ha) | Plant response rating, Bedstraw (bedstraw; POSTEMERGENCE, Rate 10 g/ha)
10: Plant response rating (0 to 100), Giant foxtail (giant foxtail [4]; Rate 1 g/ha) | Plant response rating (0 to 100), Giant foxtail (giant foxtail [4]; Rate 4 g/ha) | Plant response rating, Lambsquarter (lambsquarters; POSTEMERGENCE, Rate 10 g/ha) | Plant response rating, Lambsquarter (lambsquarters; POSTEMERGENCE, Rate 50 g/ha) | Plant response rating, Lambsquarter (lambsquarters; PREEMERGENCE, Rate 50 g/ha) | Plant response rating, Cocklebur (cocklebur; POSTEMERGENCE, Rate 10 g/ha) | Plant response rating, Cocklebur (cocklebur; POSTEMERGENCE, Rate 50 g/ha) | Plant response rating, Velvetleaf (velvetleaf; PREEMERGENCE, Rate 50 g/ha) | Plant response rating, Bedstraw (bedstraw; POSTEMERGENCE, Rate 50 g/ha) | Plant response rating, Morningglory (morningglory [8]; POSTEMERGENCE, Rate 10 g/ha)
